Where two headings read alike, the source gives them in different places.
What was measured:
glucocorticoid receptor [1] = target: T1, glucocorticoid receptor (Homo sapiens, UniProt P04150); assay: AR (ARE) luciferase reporter assay, PC3 cells (no ligand or DEX, GR-driven); format: cell-based; parameters: PC3 cells that only express GR and respond solely to DEX; endogenous in cells; host or cells: PC3; conditions: 24 h
T1 sequence (P04150 1-777): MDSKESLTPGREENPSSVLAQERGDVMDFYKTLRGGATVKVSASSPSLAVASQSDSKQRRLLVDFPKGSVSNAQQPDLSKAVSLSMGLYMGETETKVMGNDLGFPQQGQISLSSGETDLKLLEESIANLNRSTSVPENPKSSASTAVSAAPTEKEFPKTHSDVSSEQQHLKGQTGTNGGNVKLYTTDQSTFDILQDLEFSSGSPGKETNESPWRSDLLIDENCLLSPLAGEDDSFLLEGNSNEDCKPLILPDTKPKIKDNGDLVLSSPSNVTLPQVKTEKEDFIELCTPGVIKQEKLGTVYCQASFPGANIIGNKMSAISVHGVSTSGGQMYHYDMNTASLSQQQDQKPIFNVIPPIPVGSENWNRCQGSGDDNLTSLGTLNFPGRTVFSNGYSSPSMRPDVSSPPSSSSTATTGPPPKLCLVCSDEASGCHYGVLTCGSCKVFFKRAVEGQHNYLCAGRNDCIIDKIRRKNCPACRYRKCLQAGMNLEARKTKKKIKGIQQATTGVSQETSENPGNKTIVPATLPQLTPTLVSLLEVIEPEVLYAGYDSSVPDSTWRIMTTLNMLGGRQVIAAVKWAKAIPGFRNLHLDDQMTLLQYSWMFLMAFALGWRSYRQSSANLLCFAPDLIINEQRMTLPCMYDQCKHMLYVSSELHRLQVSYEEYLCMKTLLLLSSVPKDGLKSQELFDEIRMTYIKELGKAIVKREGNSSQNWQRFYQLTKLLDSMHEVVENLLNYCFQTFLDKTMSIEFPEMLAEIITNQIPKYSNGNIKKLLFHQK
Method: (§1) The 22RV1, LNCaP and PC3 cell lines were stably transfected with a PGL4.2 luciferase reporter (Promega, Madison, USA). This reporter contains a sequence (3xgtaattgcagaacagcaagtgctagctctc) representing the wild type of Androgen Response Element (ARE) derived from the Prostate-Specific Antigen (PSA) promoter. […] This transfection was accomplished using Lipofectamine 3000 (Thermo Fisher Scientific, Waltham, MA). Stable clones were selected and maintained with puromycin (0.5 μg/mL). […] The pcDNA5 plasmid (Thermo Fisher Scientific, Waltham, MA), carrying the full open reading frame of GR, was transfected into LNCaP cells, and hygromycin (50 μg/mL) was employed to select and maintain stable clones.
(§2) 10^4 reporter cells per well of 96-well plate were seeded in RPMI1640 media supplemented with 5% dialysis activated carbon treated FBS, 50 μg/mL Kanamycin in a 37°C, 5% CO2 incubator for 48 h. Cells were treated with herbal extracts at 30, 100, 300, and 600 μg/mL for 24 h in a 37°C-CO2 incubator. […] Dexamethasone (50 nM) was used to stimulate glucocorticoid receptor activity. Cells were lysed using luciferase lysis buffer after which luciferase buffer with luciferin was added to generate luminescence. Luminescence was recorded using a luminescence microplate reader. The IC50 is the concentration of treatment agent required to reduce the measured luminescence to half of its maximal value.
(§3) GAPDH was used as protein loading control for normalization. […] Details of experimental procedures are given in Materials and methods.

22RV1 tumor = assay: 22RV1 xenograft tumor growth in NCR-nude mice; format: in vivo, human; conditions: enzalutamide alone, 5 mg/kg po QD, 7 days
Description: Differences were considered statistically significant at p < 0.05.

glucocorticoid receptor [2] = target: T1, glucocorticoid receptor; assay: AR (ARE) luciferase reporter assay, LNCaP-GR cells with DEX (GR-driven); format: cell-based
Method: as §1, §2, §3

glucocorticoid receptor [3] = target: T1, glucocorticoid receptor; assay: AR (ARE) luciferase reporter assay, 22RV1 cells with DEX (GR-driven); format: cell-based; parameters: AR luciferase reporter assay using 22RV1 cells that express GR; endogenous in cells; host or cells: 22RV1
Method: as §1, §2, §3

[4] = tested on: castration-resistant prostate cancer (CRPC); conditions: cited from earlier work
androgen receptor [5] = target: T2, androgen receptor (Homo sapiens, UniProt P10275, T878A); assay: AR (ARE) luciferase reporter assay, LNCaP cells (no ligand or DHT); format: cell-based
T2 construct: LNCaP cells that only express AR and respond solely to DHT; endogenous in cells; host or cells: LNCaP; LNCaP-GR
T2 sequence (P10275 1-920 T878A): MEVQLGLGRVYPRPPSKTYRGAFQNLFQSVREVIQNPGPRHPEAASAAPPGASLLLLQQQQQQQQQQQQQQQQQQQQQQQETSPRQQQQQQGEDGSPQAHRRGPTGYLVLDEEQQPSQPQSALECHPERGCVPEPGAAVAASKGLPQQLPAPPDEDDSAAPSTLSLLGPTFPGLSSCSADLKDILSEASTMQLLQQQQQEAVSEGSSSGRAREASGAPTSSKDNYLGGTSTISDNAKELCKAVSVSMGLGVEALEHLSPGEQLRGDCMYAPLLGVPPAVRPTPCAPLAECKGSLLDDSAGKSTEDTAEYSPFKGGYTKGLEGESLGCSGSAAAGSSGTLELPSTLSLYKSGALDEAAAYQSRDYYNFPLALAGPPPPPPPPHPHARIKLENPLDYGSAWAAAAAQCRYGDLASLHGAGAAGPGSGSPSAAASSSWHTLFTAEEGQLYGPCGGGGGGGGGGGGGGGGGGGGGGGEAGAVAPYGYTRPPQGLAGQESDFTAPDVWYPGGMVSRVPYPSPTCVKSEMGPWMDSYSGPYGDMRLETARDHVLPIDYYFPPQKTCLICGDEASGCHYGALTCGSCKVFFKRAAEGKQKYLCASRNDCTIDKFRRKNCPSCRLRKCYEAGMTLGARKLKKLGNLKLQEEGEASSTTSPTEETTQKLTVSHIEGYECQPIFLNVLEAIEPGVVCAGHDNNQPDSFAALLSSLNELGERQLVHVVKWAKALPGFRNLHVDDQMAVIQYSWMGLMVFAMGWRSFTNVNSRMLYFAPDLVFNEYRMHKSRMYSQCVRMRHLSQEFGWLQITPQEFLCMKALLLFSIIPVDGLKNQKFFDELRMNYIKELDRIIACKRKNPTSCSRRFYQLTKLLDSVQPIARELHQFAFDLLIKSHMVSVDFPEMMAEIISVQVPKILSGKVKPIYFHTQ
Method: as §1, §2, §3

androgen receptor [6] = target: T2, androgen receptor; assay: cell-based
Method: as §1, §2, §3

androgen receptor [7] = target: androgen receptor (Homo sapiens, UniProt P10275); format: cell-based
Chain of androgen receptor (Homo sapiens, UniProt P10275) (P10275 whole entry): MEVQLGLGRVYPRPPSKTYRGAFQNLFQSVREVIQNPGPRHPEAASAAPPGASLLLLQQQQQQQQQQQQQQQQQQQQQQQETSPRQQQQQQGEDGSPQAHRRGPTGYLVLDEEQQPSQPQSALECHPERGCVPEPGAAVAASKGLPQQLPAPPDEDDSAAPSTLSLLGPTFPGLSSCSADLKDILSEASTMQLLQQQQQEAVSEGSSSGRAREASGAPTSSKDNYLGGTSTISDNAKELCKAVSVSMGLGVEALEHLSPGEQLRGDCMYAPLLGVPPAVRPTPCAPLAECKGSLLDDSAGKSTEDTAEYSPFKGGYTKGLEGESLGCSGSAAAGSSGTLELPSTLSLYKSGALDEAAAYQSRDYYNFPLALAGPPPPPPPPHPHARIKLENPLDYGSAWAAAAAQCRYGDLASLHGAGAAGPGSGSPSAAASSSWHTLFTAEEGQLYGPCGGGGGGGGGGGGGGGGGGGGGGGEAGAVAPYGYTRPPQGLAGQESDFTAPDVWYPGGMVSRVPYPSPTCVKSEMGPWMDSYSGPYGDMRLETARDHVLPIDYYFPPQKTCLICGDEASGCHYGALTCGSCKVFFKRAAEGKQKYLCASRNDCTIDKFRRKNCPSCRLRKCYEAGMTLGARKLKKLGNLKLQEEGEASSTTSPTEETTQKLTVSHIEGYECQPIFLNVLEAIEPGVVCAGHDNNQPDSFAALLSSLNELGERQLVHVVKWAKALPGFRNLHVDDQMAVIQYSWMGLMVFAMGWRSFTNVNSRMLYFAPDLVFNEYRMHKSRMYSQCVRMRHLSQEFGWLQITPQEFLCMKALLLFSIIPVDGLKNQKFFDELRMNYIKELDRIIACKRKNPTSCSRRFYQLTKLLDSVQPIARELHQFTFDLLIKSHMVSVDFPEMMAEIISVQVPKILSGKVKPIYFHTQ
Method: as §1
as §2, with “value. […]” for “value.”

AR = tested on: AR; parameters: method as in Rice et al., 2019; conditions: ref Rice et al., 2019; cited from earlier work
Description: Prostate cancer is the second leading cause of cancer death among men in the United States. […] Therefore, androgen or Androgen R targeted therapy has become a major focus for the prevention ...

[8] = ref Rice et al., 2019; cited from earlier work
Description: Prostate cancer is the second leading cause of cancer death among men in the United States. According to the National Cancer Institute over 3 million men in the United States are living with prostate cancer, with 288,300 additional cases and 34,700 deaths expected in 2023. Androgen receptor (AR) signaling plays a key role in development of Benign prostatic hyperplasia (BPH) and prostate cancer ([Shiota et al., 2011]; [Gioeli and Paschal, 2012]; [Mills, 2014]; [Wong et al., 2014]; [Tan et al., 2015]). Therefore, androgen or Androgen R targeted therapy has become a major focus for the prevention ...

[9] = tested on: de novo protein synthesis; parameters: method as in Zalacain et al., 1982; Chan et al., 2004; Keysar et al., 2020; conditions: ref Zalacain et al., 1982; Chan et al., 2004; Keysar et al., 2020; cited from earlier work
[10] = of patients, ref Cattrini et al., 2022
[11] = IC50 for ARE-luciferase reporter, ligand: -
[12] = IC50 for ARE-luciferase reporter, ligand: DEX (50 nM)
[13] = IC50 for ARE-luciferase reporter
[14] = read-out: IC50 for ARE-luciferase reporter

## CNC(=O)c1ccc(N2C(=S)N(c3ccc(C#N)c(C(F)(F)F)c3)C(=O)C2(C)C)cc1F [Enzalutamide]
Glucocorticoid receptor [1]; DEX 50 nM
  inhibition of DEX-induced luciferase activity: no effect
22RV1 tumor
  22RV1 tumor growth: not found to substantially decrease the growth of 22RV1 tumors
Glucocorticoid receptor [2]; LNCaP-GR, DEX 50 nM, 24 h
  inhibition of DEX-induced luciferase activity: no effect
Glucocorticoid receptor [3]; 22RV1, DEX 50 nM, 24 h
  inhibition of Dex-induced luciferase activity: unable to inhibit GR-mediated luciferase activity
[4]; [10]
  grade 3 adverse events or higher: approximately 25%
[4]; ref Cattrini et al., 2022
  most common side effects: fatigue, hypertension, diarrhea, and weight loss

## COc1ccc(C[C@H]2C(=O)N[C@@H](C)C(=O)N(C)[C@H]3Cc4ccc(cc4)Oc4cc(ccc4O)C[C@@H](C(=O)N[C@H](C)C(=O)N[C@@H](C)C(=O)N2C)N(C)C3=O)cc1 [RA-V, Deoxybouvardin]
Glucocorticoid receptor [1]; ligand: -, read-out: IC50 for ARE-luciferase reporter
  IC50: 40 ± 19 nM
Glucocorticoid receptor [1]; ligand: DEX (50 nM), read-out: IC50 for ARE-luciferase reporter
  IC50: 5.7 ± 2.3 nM
Androgen receptor [5]; LNCaP, ligand: +DHT (25 nM), 24 h, read-out: IC50 for ARE-luciferase reporter
  IC50: 5.3 ± 1.4 nM
Androgen receptor [5]; LNCaP, ligand: -, 24 h, read-out: IC50 for ARE-luciferase reporter
  IC50: > 100 nM
Glucocorticoid receptor [2]; LNCaP-GR, ligand: +DEX (50 nM), 24 h, read-out: IC50 for ARE-luciferase reporter
  IC50: 7.8 ± 2.2 nM
Androgen receptor [6]; LNCaP-GR, ligand: +DHT (25 nM), 24 h, read-out: IC50 for ARE-luciferase reporter
  IC50: 4.1 ± 1.3 nM
Androgen receptor [6]; LNCaP-GR, ligand: -, 24 h, read-out: IC50 for ARE-luciferase reporter
  IC50: > 100 nM
Glucocorticoid receptor [3]; 22RV1, ligand: +DEX (50 nM), 24 h, read-out: IC50 for ARE-luciferase reporter
  IC50: 22 ± 5 nM

## COc1ccc(C[C@H]2C(=O)N[C@@H](C)C(=O)N(C)[C@H]3Cc4ccc(cc4)Oc4cc(ccc4OC)C[C@@H](C(=O)N[C@H](C)C(=O)N[C@@H](C)C(=O)N2C)N(C)C3=O)cc1 [RA-VII]
Glucocorticoid receptor [1]; [11]
  IC50: 32 ± 9 nM
Glucocorticoid receptor [1]; [12]
  IC50: 3.6 ± 0.6 nM
Glucocorticoid receptor [2]
  IC50: 5.6 ± 2.3 nM
Glucocorticoid receptor [3]
  IC50: 13.5 ± 5 nM

## COc1ccc(C[C@H]2C(=O)N[C@@H](C)C(=O)N(C)[C@H]3Cc4ccc(cc4)Oc4cc(ccc4O)C[C@@H](C(=O)N[C@H](C)C(=O)N[C@@H](CCC(=O)O)C(=O)N2C)N(C)C3=O)cc1 [RA-XI]
Glucocorticoid receptor [1]; [11]
  IC50: > 250 nM
Glucocorticoid receptor [1]; [12]
  IC50: > 250 nM
Androgen receptor [7]
  comparative potency (anti-AR and anti-GR activity): significantly reduce the anti-AR and anti-GR activity
  inhibition of luciferase activity in any assay: did not inhibit luciferase activity in any assay
Androgen receptor [5]; [13]
  IC50: > 250 nM
Androgen receptor [5]; [14]
  IC50: > 250 nM
Glucocorticoid receptor [2]
  IC50: > 250 nM
Androgen receptor [6]; [13]
  IC50: > 250 nM
Androgen receptor [6]; [14]
  IC50: > 250 nM
Glucocorticoid receptor [3]
  IC50: > 250 nM

## CNC(=O)c1ccc(N2C(=S)N(c3cnc(C#N)c(C(F)(F)F)c3)C(=O)C23CCC3)cc1F [apalutamide]
AR
  selectivity and potency against AR: higher selectivity and potency against AR
[8]
  brain penetrance: reductions in brain penetrance
[4]; [10]
  grade 3 adverse events or higher: approximately 25%
[4]; ref Cattrini et al., 2022
  most common side effects: fatigue, hypertension, diarrhea, and weight loss

## CC(O)c1cc(C(=O)N[C@@H](C)Cn2ccc(-c3ccc(C#N)c(Cl)c3)n2)[nH]n1 (stereo partly shown) [darolutamide]
AR
  selectivity and potency against AR: higher selectivity and potency against AR
[8]
  brain penetrance: reductions in brain penetrance
[4]; human, in vivo
  grade 3 adverse events or higher: approximately 25%
  most common side effects: fatigue, hypertension, diarrhea, and weight loss

## Bouvardin
[9]
  inhibition of de novo protein synthesis: can inhibit de novo protein synthesis

Reference: article PMC10582333 (Frontiers in Pharmacology, 2023)
